The text below walks through data of patent US9975854B2, “Benzomorphan analogs and use thereof” (Purdue Pharma L.P., priority 2014, dated 2018).

Broadly, the EC50 is the concentration that produces a half-maximal response. A word on the Emax: it is the greatest response seen or fitted, relative to the assay's reference.

Read-outs that look alike come from different tables or passages of the source.

This assay deals with μ-opioid receptor (Homo sapiens (Human), UniProt P35372). The assay is described as follows: μ-opioid receptor [35S]GTPγS functional assay, HEK-293 or CHO cells. The class given is biochemical. To be noted: HEK-293 or CHO cells; for EC50: read-out: GTPγS μ EC50; for Emax: relative to DAMGO. Here is the method: [^35S]GTPγS functional assays were conducted using freshly thawed μ-receptor membranes prepared in-house from a cell line expressing recombinant opioid receptor in a HEK-293, CHO or U-2 OS cell background, or purchased from a commercial source (Perkin Elmer, Shelton, Conn.; or DiscovRx, Fremont, Calif.). Assay reactions were prepared by sequentially adding the following reagents to binding buffer (100 mM NaCl, 10 mM MgCl2, 20 mM HEPES, pH 7.4) on ice (final concentrations indicated): membrane protein (0.026 mg/mL), saponin ([…]), GDP ([…]) and [^35S]GTPγS (0.20 nM; Perkin Elmer, Shelton, Conn.). The prepared membrane solution (190 μl/well) was transferred to 96-shallow well polypropylene plates containing 10 μl of 20× concentrated stock solutions of the agonist [D-Ala^2, N-methyl-Phe^4 Gly-ol^5]-enkephalin (DAMGO) prepared in dimethyl sulfoxide (DMSO). Plates were incubated for 30 min at about 25° C. with shaking. Reactions were terminated by rapid filtration onto 96-well Unifilter GF/B filter plates (Perkin Elmer, Shelton, Conn.) using a 96-well tissue harvester (Perkin Elmer, Shelton, Conn.) followed by three filtration washes with 200 μl of ice-cold wash buffer (10 mM NaH2PO4, 10 mM Na2HPO4, pH 7.4). Filter plates were subsequently dried at 50° C. for 2-3 hr. BetaScint scintillation cocktail (Perkin Elmer, Shelton, Conn.) was added (50 μl/well) and plates were counted using a Packard Top-Count for 1 min/well. Data were analyzed using the sigmoidal dose-response curve fitting functions in GraphPad PRISM v. 3.0, or an in-house function for non-linear, sigmoidal dose-response curve-fitting.
μ GTP EC50 is the concentration of a compound providing 50% of the maximal response for the compound at a μ-opioid receptor.
μ GTP Emax (%) is the maximal effect elicited by a compound relative to the effect elicited by DAMGO, a standard p agonist. Generally, the μ GTP Emax (%) value measures the efficacy of a compound to treat or prevent pain or other Conditions.
In TABLE 4, activity response of certain Compounds of the Invention to the μ- and κ-opioid receptors was determined as described above for functional assays using HEK-293 or CHO cells.
On the technique in general: GTPγS resists hydrolysis and so accumulates on activated G proteins.

On to `CN1CCC2(C)c3cc(O)ccc3C[C@@H]1C2NC(=O)Cc1ccccc1` (stereo in doubt) [Compound 29, N-((2R,6S,11S)-8-hydroxy-3,6-dimethyl-1,2,3,4,5,6-hexahydro-2,6-methanobenzo[d]azocin-11-yl)-2-phenylacetamide], for which the Emax was determined as 1%. Also, the half-maximal effective concentration (EC50) (bound given in uM) is > 20 µM.
Take `CN1CCC2(C)c3cc(O)ccc3C[C@@H]1C2NC(=O)Cc1ccsc1` (stereo in doubt) [Compound 31, N-((2R,6S,11S)-8-hydroxy-3,6-dimethyl-1,2,3,4,5,6-hexahydro-2,6-methanobenzo[d]azocin-11-yl)-2-(thiophen-3-yl)acetamide]: the Emax worked out at 1%. Moreover, the EC50 (bound given in uM) is > 20 µM.
For `CN1CCC2(C)c3cc(O)ccc3C[C@@H]1C2NC(=O)/C=C/c1ccoc1` (stereo in doubt) [Compound 32, (E)-3-(furan-3-yl)-N-((2R,6S,11S)-8-hydroxy-3,6-dimethyl-1,2,3,4,5,6-hexahydro-2,6-methanobenzo[d]azocin-11-yl)acrylamide], in that order: 2.33 ± 0.88% and > 20 µM.
For `CN1CCC2(C)c3cc(O)ccc3C[C@@H]1C2NC(=O)CCC(=O)Nc1ccc(F)cc1F` (stereo in doubt) [Compound 34, N^1-(2,4-difluorophenyl)-N^4-((2R,6S,11S)-8-hydroxy-3,6-dimethyl-1,2,3,4,5,6-hexahydro-2,6-methanobenzo[d]azocin-11-yl)succinamide], in that order: 2.67 ± 0.33% and > 20 µM.
Regarding `CN(CC1CCN(S(=O)(=O)Cc2ccccc2)CC1)C1[C@H]2Cc3ccc(O)cc3C1(C)CCN2C` (stereo in doubt) [Compound 58, (2R,6S,11S)-11-(((1-(benzylsulfonyl)piperidin-4-yl)methyl)(methyl)amino)-3,6-dimethyl-1,2,3,4,5,6-hexahydro-2,6-methanobenzo[d]azocin-8-ol], the EC50 stood at 0.0132 ± 0.00071 µM and the Emax is 58 ± 7.55%.
For `CC(C)CS(=O)(=O)N1CCC(CN(C)C2[C@H]3Cc4ccc(O)cc4C2(C)CCN3C)CC1` (stereo in doubt) [Compound 59, (2R,6S,11S)-11-(((1-(isobutylsulfonyl)piperidin-4-yl)methyl)(methyl)amino)-3,6-dimethyl-1,2,3,4,5,6-hexahydro-2,6-methanobenzo[d]azocin-8-ol], in that order: 0.0528 ± 0.005 µM and 27 ± 1.53%.
For `CN(CC1CCN(S(=O)(=O)C2CCCC2)CC1)C1[C@H]2Cc3ccc(O)cc3C1(C)CCN2C` (stereo in doubt) [Compound 60, (2R,6S,11S)-11-(((1-(cyclopentylsulfonyl)piperidin-4-yl)methyl)(methyl)amino)-3,6-dimethyl-1,2,3,4,5,6-hexahydro-2,6-methanobenzo[d]azocin-8-ol], in that order: 0.012 ± 0.00174 µM and 22.3 ± 2.34%.
Take `CN1CCC2(C)c3cc(O)ccc3C[C@@H]1C2NS(=O)(=O)Cc1ccccc1` (stereo in doubt) [Compound 101, N-((2R,6S,11S)-8-hydroxy-3,6-dimethyl-1,2,3,4,5,6-hexahydro-2,6-methanobenzo[d]azocin-11-yl)-1-phenylmethanesulfonamide]: the Emax came out at 6 ± 4.06%. The EC50 (bound given in uM) was > 20 µM.
For `CN1CCC2(C)c3cc(O)ccc3C[C@@H]1C2NS(=O)(=O)c1ccccc1` (stereo in doubt) [Compound 102, N-((2R,6S,11S)-8-hydroxy-3,6-dimethyl-1,2,3,4,5,6-hexahydro-2,6-methanobenzo[d]azocin-11-yl)benzenesulfonamide], in that order: -1% and > 20 µM.
Take `CN1CC[C@@]2(C)c3cc(O)ccc3C[C@@H]1[C@H]2NCCc1ccc(S(C)(=O)=O)cc1` [Compound 11, (2R,6S,11S)-3,6-dimethyl-11-((4-(methylsulfonyl)phenethyl)amino)-1,2,3,4,5,6-hexahydro-2,6-methanobenzo[d]azocin-8-ol]: the EC50 was found to be 0.0356 ± 0.0059 µM and the Emax came out at 16.7 ± 0.33%.
Turning to `CN1CC[C@@]2(C)c3cc(O)ccc3C[C@@H]1[C@H]2NCC1(O)CCCCC1` [Compound 13, (2R,6S,11S)-11-(((1-hydroxycyclohexyl)methyl)amino)-3,6-dimethyl-1,2,3,4,5,6-hexahydro-2,6-methano-benzo[d]azocin-8-ol], the EC50 worked out at 1.07 ± 0.172 µM and the Emax is 45.7 ± 1.76%.
Turning to `CN1CC[C@@]2(C)c3cc(O)ccc3C[C@@H]1[C@@H]2NCC1(O)CCCCC1` [Compound 14, (2R,6S,11R)-11-(((1-hydroxycyclohexyl)methyl)amino)-3,6-dimethyl-1,2,3,4,5,6-hexahydro-2,6-methanobenzo[d]azocin-8-ol], the EC50 turned out to be 8.69 ± 2.27 µM and the Emax was 15 ± 1.58%.
Turning to `CN1CC[C@@]2(C)c3cc(O)ccc3C[C@@H]1[C@@H]2NCCOc1ccccc1` [Compound 15, (2R,6S,11R)-3,6-dimethyl-11-((2-phenoxyethyl)amino)-1,2,3,4,5,6-hexahydro-2,6-methanobenzo[d]azocin-8-ol], the EC50 came to 0.124 ± 0.0204 µM and the Emax is 97.7 ± 1.76%.
For `CN1CC[C@@]2(C)c3cc(O)ccc3C[C@@H]1[C@@H]2NCCC1CCCCC1` [Compound 16, (2R,6S,11R)-11-((2-cyclohexylethyl)amino)-3,6-dimethyl-1,2,3,4,5,6-hexahydro-2,6-methanobenzo[d]azocin-8-ol], in that order: 1.27 ± 0.0901 µM and 77.3 ± 3.84%.
For `CN1CC[C@@]2(C)c3cc(O)ccc3C[C@@H]1[C@H]2NCCC1CCCCC1` [Compound 17, (2R,6S,11 S)-11-((2-cyclohexylethyl)amino)-3,6-dimethyl-1,2,3,4,5,6-hexahydro-2,6-methanobenzo[d]azocin-8-ol], in that order: 0.0929 ± 0.00079 µM and 55.3 ± 4.1%.
For `CN1CC[C@@]2(C)c3cc(O)ccc3C[C@@H]1[C@@H]2NCCCCNC(=O)OC(C)(C)C` [Compound 18, Tert-butyl (4-(((2R,6S,11R)-8-hydroxy-3,6-dimethyl-1,2,3,4,5,6-hexahydro-2,6-methanobenzo[d]azocin-11-yl)amino)butyl)carbamate], in that order: 0.124 ± 0.0183 µM and 48.4 ± 3.28%.
Consider `CN1CC[C@@]2(C)c3cc(O)ccc3C[C@@H]1[C@H]2NCCCCNC(=O)OC(C)(C)C` [Compound 19, Tert-butyl (4-(((2R,6S,11S)-8-hydroxy-3,6-dimethyl-1,2,3,4,5,6-hexahydro-2,6-methanobenzo[d]azocin-11-yl)amino)butyl)carbamate], for which the Emax is 0%. Further, under “bound given in uM”, the EC50 was > 20 µM.
As for `CN1CC[C@@]2(C)c3cc(O)ccc3C[C@@H]1[C@@H]2NC(=O)Nc1ccc(C#N)cc1` [Compound 27, 1-(4-Cyanophenyl)-3-((2R,6S,11R)-8-hydroxy-3,6-dimethyl-1,2,3,4,5,6-hexahydro-2,6-methanobenzo[d]azocin-11-yl)urea], the Emax came out at 0%. Further, the EC50 (bound given in uM) is > 20 µM.
For the compound `CN1CC[C@@]2(C)c3cc(O)ccc3C[C@@H]1[C@@H]2N(C)C(=O)Cc1ccc(S(C)(=O)=O)cc1` [Compound 28, N-((2R,6S,11R)-8-hydroxy-3,6-dimethyl-1,2,3,4,5,6-hexahydro-2,6-methanobenzo[d]azocin-11-yl)-N-methyl-2-(4-(methylsulfonyl)phenyl)acetamide], the concentration giving a half-maximal response (EC50) came out at 0.182 ± 0.012 µM and the Emax was 84.7 ± 1.2%.
For the compound `CN1CC[C@@]2(C)c3cc(O)ccc3C[C@@H]1[C@@H]2NC(=O)CC(=O)Nc1ccc(F)cc1F` [Compound 30, N^1-(2,4-difluorophenyl)-N^3—((2R,6S,11R)-8-hydroxy-3,6-dimethyl-1,2,3,4,5,6-hexahydro-2,6-methanobenzo[d]azocin-11-yl)malonamide], the Emax amounted to 2.67 ± 3.67%. Moreover, under “bound given in uM”, the EC50 is > 20 µM.
For `CN1CC[C@@]2(C)c3cc(O)ccc3C[C@@H]1[C@@H]2NC(=O)Cc1ccc(S(C)(=O)=O)cc1` [Compound 33, N-((2R,6S,11R)-8-hydroxy-3,6-dimethyl-1,2,3,4,5,6-hexahydro-2,6-methanobenzo[d]azocin-11-yl)-2-(4-(methylsulfonyl)phenyl)acetamide], the EC50 was found to be 5.28 ± 1.26 µM and the Emax is 13%.
Regarding `CN1CC[C@@]2(C)c3cc(O)ccc3C[C@@H]1[C@H]2N(C)C(=O)Cc1ccc(S(C)(=O)=O)cc1` [Compound 35, N-((2R,6S,11S)-8-hydroxy-3,6-dimethyl-1,2,3,4,5,6-hexahydro-2,6-methanobenzo[d]azocin-11-yl)-N-methyl-2-(4-(methylsulfonyl)phenyl)acetamide], the Emax turned out to be 2 ± 0.41%. Also, the EC50 (bound given in uM) was > 20 µM.
